assay: gradient 5% acetonitrile 3 min, to 50% in 2 min, to 85% in 15 min, held 3 min, 100 µL/min; details: column: Zorbax Extend-C18 2.1 x 50 mm; eluents: water / acetonitrile, 0.1% formic acid
Method in brief: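 Standards, all pure, were combined into mixtures of ~100 molecules and run at 100 μL/min on a Zorbax Extend-C18 column (2.1 × 50 mm, 1.8 μm) with water and acetonitrile, each containing 0.1% formic acid. A coupled quadrupole time-of-flight mass spectrometer operated in positive and negative ionization mode. Retention time values come from computationally picked adduct peaks, each inspected manually.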

SMILES | RP-LC retention time
CC(C)N1CCCn2cc(S(=O)(=O)Nc3cccc(OC(F)(F)F)c3)cc2C1=O | 881 s
CC(C)c1cc(C(=O)N2CCOCC2)nc2ccnn12 | 637 s
Cc1ccc(NC(=O)Nc2ccc3c(c2)CCN3S(=O)(=O)c2ccccc2)cc1 | 995 s
Cc1cc(N2CCN(C(=O)Nc3ccc(F)c(Cl)c3)CC2)nc(N2CCOCC2)n1 | 665 s
CCOc1ccc2nc(Nc3ncc4c(n3)CC(c3ccc(C)cc3)CC4=O)nc(C)c2c1 (stereo unspecified) | 886 s
COc1cccc(CNC(=O)C2CCN(S(=O)(=O)c3ccc4c(c3)sc(=O)n4C)CC2)c1 | 798 s
CCc1cc(=O)n(CC(=O)N(C)c2cccc(C)c2)c(-c2ccccc2)n1 | 1110 s
CCOCCCNC(=O)C1CCCN(S(=O)(=O)c2ccc(OC)c(C)c2)C1 (stereo unspecified) | 813 s
Cc1noc(C)c1S(=O)(=O)N1CCC(CC(=O)NCCc2c[nH]c3ccccc23)CC1 | 816 s
CCCN1C(=O)c2cc(S(=O)(=O)N3CCCCC3C)ccc2Oc2cccnc21 (stereo unspecified) | 1170 s
CC(=O)N1CCCc2cc(S(=O)(=O)CCC(=O)N3CCN(c4cccc(C)c4)C(C)C3)ccc21 (stereo unspecified) | 750 s
Cc1cc(N)n(Cc2ccccc2)n1 | 569 s
CN(CC1CCOC1)C(=O)NCCc1ccccc1 (stereo unspecified) | 650 s
COc1ccc(C2C(C(=O)NCC3CCCO3)c3cc(OC)c(OC)cc3C(=O)N2C)cc1OC (stereo unspecified) | 652 s
O=C1C2N=NN(Cc3nc(-c4ccc(Br)cc4)no3)C2C(=O)N1c1cccc(F)c1 (stereo unspecified) | 1080 s
CC(C)c1ccc(NC(=O)CN2CCN(C(=O)Nc3ccc(Br)cc3)CC2=O)cc1 | 885 s
CC1CCN(c2nc3c(c(=O)n(C)c(=O)n3C)n2Cc2ccccc2F)CC1 | 1090 s
O=C(Nc1ccc(-c2nc3ccccc3o2)cc1)c1ccc(S(=O)(=O)N2CCCC2)cc1 | 1000 s
O=C(c1cn(-c2cc(-c3nc(C4CC4)no3)ccn2)cn1)N1CCCCC1 | 810 s
Cc1ccc(C(=O)N2CCCC(COc3ccc(C(=O)NC(C)C)cc3)C2)cc1C (stereo unspecified) | 931 s
CCOC(=O)c1c(C)oc2ncnc(NCC3CCN(Cc4ccccc4F)CC3)c12 | 694 s
Cc1cccc(C(=O)N2CCN(c3nnc4cccc(C)n34)CC2)c1 | 680 s

SMILES | RP-LC retention time
Cc1ccc(-c2noc(CCN3CCN(C(C)C)CC3)n2)cc1 | 640 s
CC(C)NC(=O)c1ccc(OCC2CCCN2C(=O)c2cc(F)ccc2Cl)cc1 (stereo unspecified) | 881 s
COc1ccccc1NC(=O)Cn1c(C)cc(-c2nnc(-c3ccc(F)cc3)o2)c1C | 998 s
CCc1cc(=O)n(CC(=O)NCc2ccc(C)cc2)c(N2CCOCC2)n1 | 747 s
CCSc1nc2ccc(NS(=O)(=O)c3ccc(C)cc3C)cc2s1 | 1110 s
CCc1nc2ccccc2c(=O)n1Cc1noc(C2CC(=O)N(c3ccc(C)c(C)c3)C2)n1 (stereo unspecified) | 927 s
CCCCc1nn2c(=O)cc(CN3CCN(c4ncccn4)CC3)nc2s1 | 604 s
COc1ccc(CN2CC3(CCN(S(=O)(=O)C(C)C)CC3)C2=O)cc1 | 787 s
Cc1nc2ccc(NC(=O)c3cccnc3)cc2c(=O)n1-c1ccc(F)cc1 | 623 s
COc1cc2ncc(S(=O)(=O)c3ccc(C)c(C)c3)c(N3CCN(C)CC3)c2cc1OC | 629 s
Cc1ccn2c(Nc3ccc4c(c3)OCCO4)c(-c3cccc(Br)c3)nc2c1 | 739 s
COC(=O)c1c(C)c(C(=O)C(C)N(C(=O)c2ccc(F)cc2)C(C)C)c(C)n1C (stereo unspecified) | 922 s
CC(C)CNC(=O)CC1=C2CCCCC2NC1=O (stereo unspecified) | 644 s
C[C@@H]1O[C@@H](O[C@H]2[C@H](Oc3cc(O)c(C(=O)CCc4ccc(O)cc4)c(O)c3)O[C@H](CO)[C@@H](O)[C@@H]2O)[C@H](O)[C@H](O)[C@H]1O | 650 s
O=[N+]([O-])c1c(NCCCO)cc(Nc2ccc(F)cc2)c2nonc12 | 676 s
Cc1noc(C)c1Cc1ccc(C(=O)N2CCC(N3C[C@H](O)C[C@H]3C(=O)NC3CCCCC3)CC2)o1 | 656 s
COc1ccc([N+](=O)[O-])cc1NS(=O)(=O)c1ccc(C)cc1 | 961 s
CCN(CC)CCNC(=O)CCc1c(C)nc2c(c1C)c(=O)n(C)c(=O)n2C | 602 s
O=C(Nc1ccc(F)cc1F)C1(CCO)CCN(c2ncccn2)C1 (stereo unspecified) | 611 s
CCC(C)NC(=O)c1cc(=O)[nH]c2ccccc12 (stereo unspecified) | 645 s
CC(=O)Nc1ccc(-c2nnc3n2CCCC3)cc1 | 563 s
COc1ccc(-c2n[nH]c3c2C(c2cccnc2)N(c2ccc(Br)cc2)C3=O)cc1 (stereo unspecified) | 768 s

SMILES | RP-LC retention time
Cc1nc(CC(=O)Nc2nc(-c3ccc(Br)cc3)c(C)s2)cs1 | 994 s
O=C(c1ccccc1Cl)N1CCC(Cc2nnc(-c3ccccc3)o2)CC1 | 864 s
O=C(Cn1nc2c(N3CCCCCC3)nccn2c1=O)Nc1ccccc1C(F)(F)F | 727 s
C=CCN1C(=O)COc2ccc(-c3csc(NC(=O)c4ccc(F)cc4)n3)cc21 | 1010 s
CCc1nnc2ccc(NCC3CCCO3)nn12 (stereo unspecified) | 646 s
O=C1CCCc2cc(S(=O)(=O)N3CCC(C(=O)NCCc4cccs4)CC3)ccc2N1 | 717 s
O=C(NC1CCCC1)c1c[nH]c2ncccc12 | 625 s
CCc1cc(=O)n(CC(=O)Nc2ccc(C)c(Cl)c2)c(N2CCOCC2)n1 | 871 s
CCC1CCCCN1C(=O)c1cnc2nc(C)ccc2c1Nc1cccc(SC)c1 (stereo unspecified) | 713 s
COc1ccc(C2C(C(=O)C3CC3)=C(O)C(=O)N2CCCOC(C)C)cc1OC (stereo unspecified) | 736 s
CN1CCn2cc(S(=O)(=O)Nc3ccc(Cl)cc3F)cc2C1=O | 723 s
O=S(=O)(NCC#CCN1CCc2ccccc2C1)c1cccs1 | 558 s
Cc1ccc2nc(C3CN(C(=O)COc4ccc(Cl)cc4Cl)C3)[nH]c2c1 | 610 s
Cc1ccc(-c2csc(-n3nc(C)c(CC(=O)N4CCCCCC4)c3C)n2)cc1 | 1270 s
O=C(NCc1ccco1)c1cc2c(s1)CCN(C(=O)c1ccc(Cl)cc1)C2 | 846 s
NCCSSCc1ccccc1CSSCCN | 567 s
COc1ccccc1/C=C(\C#N)C(=O)O | 801 s
CCOc1cccc(-c2noc(Cc3nnc(-c4ccc(C)c(F)c4)o3)n2)c1 | 1160 s
O=c1c(=O)n(-c2ccccc2)ccn1Cc1nc(-c2cccc(Br)c2)no1 | 885 s
COc1ccc(NC(=O)N2CCN(c3cc(-n4nc(C)cc4C)ncn3)CC2)cc1Cl | 852 s
Cc1ccc(-n2c(N3CCC(C(=O)NCC4CC4)CC3)nc3ccsc3c2=O)cc1 | 808 s
Cc1cc(-c2nc(C3CC3)no2)c(C)n1CC(=O)Nc1ccc(Cl)cc1 | 1020 s
